Reference: patent US5473074A, “Adenosine diphosphoribose polymerase binding nitroso aromatic compounds useful as retroviral inactivating agents, anti-retroviral agents and anti-tumor agents-54” (priority 1992, dated 1995)
“Also recorded” adds a separate entry of the source.

Assays:
[1] = test system: human leukemia cell lines (855-2, H9, HL-60, K562); test: [3H]thymidine uptake, human leukemia cell lines (FIG. 2); type: cell-based
Protocol: FIGS. 2A-2F are composite of graphs displaying the inhibitory effects of the ADRPT ligands on (FIG. 2A) 855-2 cells (a cell line of human B-cell lineage acute lymphoblastic leukemia), (FIG. 2B) H9 cells (a cell line of human T-cell lineage acute lymphoblastic leukemia), (FIG. 2C) HL-60 cells (a cell line of human acute nonlymphoblastic leukemia) and (FIG. 2D) K562 cells (a cell line of human chronic myelogenous leukemia). These cells were cultured while under the influence of the growth factors in 10% fetal bovine serum (FCS), whereas in (FIG. 2E) and (FIG. 2F) the 855-2 cells were cultured in the presence of autocrine growth factor activity (AGF) or low molecular weight-B-cell growth factor (BCGF, a T-cell derived lymphokine), respectively.

H9 cells = test: [3H]thymidine uptake, H9 cells; type: cell-based, human; settings: 10% FCS
855-2 cells [2] = test: [3H]thymidine uptake / growth, 855-2 cells; type: cell-based, human
855-2 cells [3] = test: Colony formation (CFU) in semi-solid medium, 855-2; type: cell-based, human; settings: single cells in semi-solid medium
HL-60 cells = test: Colony formation (CFU) in semi-solid medium, HL-60; type: cell-based, human; settings: single cells in semi-solid medium
L1210 murine leukemia = L1210 murine leukemia in vivo in BDF mice; set-up: species or system mouse; settings: 2 mg/kg i.p. twice a day
[4] = test system: cancer cells (855-2 and HL-60 leukemia, D32, D37 and CRL 7712 glioblastoma, 186 medulla tumor, L1210 murine leukemia, MDA-468 human breast tumor); test: Functions of cancer cells in absence or presence of compounds (FIGS. 4-9); type: cell-based
Protocol: (§1) Experiments were performed in which the functions of various cancer cells (855-2 and HL-60 leukemia cells, D32, D37 and CRL 7712 glioblastoma cell lines, 186 medulla tumor cell line, L1210 murine leukemia cell line, MDA-468 human breast tumor cell line) and normal cells (neutrophil leukocytes and bone marrow or peripheral blood stream cells) were assessed in the absence or presence of the compounds.

[5] = target: Zn(HIV1-F1), N-terminal CCHC zinc finger of the HIV-1 NC protein (Human immunodeficiency virus type 1 lw12.3 isolate, UniProt Q70622); test: NMR studies of zinc ejection from Zn(HIV1-F1); type: biochemical; settings: 2 mM NOBA
Protocol: The * and + symbols denote the aromatic proton signals of the zinc-coordinated and zinc-free His 9 residue. Upon completion of the reaction, reflected by complete ejection of zinc (t=90 min), 50% of the NOBA remained unreacted indicating a 1:1 reaction stoichiometry. NOBA (3-nitrosobenzamide), was synthesized described elsewhere in this application.
To determine if NOBA is capable of ejecting zinc from retroviral-type zinc fingers, NMR studies were performed on a peptide with amino acid sequence corresponding to the N-terminal CCHC zinc finger of the HIV-1 NC protein, Zn(HIV1-F1), South, et al., J. Am. Chem. Soc. 111:395-396 (1989), South, et al., Biochem Pharm. 40:123-129 (1990), Summers, et al., Biochemistry 29:329-340 (1990). NMR spectra of Zn(HIV-F1) were performed before and after the addition of NOBA (3-nitrosobenzamide). […] Chem Soc. 111:395-396 (1989), and three-dimensional structural studies have shown that the peptide adopts a structure that is essentially identical to the structure of the corresponding region in the intact NC protein, South, et al., Biochemistry 29:7786-7789 (1990). The down-field region of the ^1 H NMR spectrum showing the signals due to the aromatic proton of His 9 and Phe 2 is illustrated in FIG. 10 (bottom). […]

[6] = target: Zn(HIV1-F1)-oligonucleotide complex (Human immunodeficiency virus type 1 lw12.3 isolate, UniProt Q70622); test: NMR studies of Zn(HIV1-F1) nucleic acid binding; type: biochemical, HIV-1; settings: two equivalents of NOBA (FIG. 11)
Text: The downfield regions of the spectra show the signals of the aromatic and ribose H1' protons, and the upfield region contain signals of the methyl group protons. Dramatic spectral changes occur upon addition of oligonucleotide to Zn(HIV1-F1), including large upfield shifts of the Phe 2 and Ile 10 side chain=n signals and a downfield shifting and broadening of the guanosine-H8 proton signal (second from the top).
The reaction mechanism, schematically illustrated in FIG. 12, is consistent with the result of NMR analysis in FIGS. 10 and 11. The reaction mechanism proposed in FIG. 12 is a useful model but is not intended to limit the scope of the claimed invention.

[7] = test system: HIV-1 (MN strain) virions; test: Zinc loss from HIV-1 virions treated with NOBA; type: biochemical
Protocol: Experiments were performed to determine if NOBA is capable of ejecting zinc from intact virions. HIV-1 (MN strain) was produced, purified and concentrated as described in Bess et al., J. Virol. 66:840-847 (1992). The concentrated virus was diluted to 60 times that of culture fluid in TNE buffer (0.01M Tris-HCl, 0.1M NaCl, 1 mM EDTA, pH 7.2) and incubated with 3000 or 6000 μM NOBA at 37° C. The virus was then pelleted and washed with TNE buffer to remove weakly bound zinc. The quantity of zinc in the resulting viral pellets was determined as described in Bess et. al., J. Virol. 66:840-847 (1992).

cells / HIV = test: Anti-tumor / anti-HIV (biological) action, general statement
[8] = test system: normal rhesus bone marrow stem cells; test: CFU stem cell toxicity assay, FIG. 5A; settings: 10 μM
[9] = test system: normal cells (neutrophil leukocytes and bone marrow or peripheral blood stem cells); test: Functions/viability of normal cells in absence or presence of compounds
Protocol: as §1

NC(=O)c1cccc(N=O)c1 [NOBA, 3-nitrosobenzamide]
inhibition of 3H-thymidine uptake, in words ([1]; 10 μM, 855-2, H9, HL-60, K562 cells): powerfully inhibited 3H-thymidine uptake
molar concentrations needed to inhibit 3H-thymidine uptake, in words ([1]; each of the cell lines tested): able to inhibit 3H-thymidine uptake in lower molar concentrations than the other compounds
inhibition of thymidine uptake, H9 (H9 cells; 250 μM): almost complete inhibition
inhibition at 10 µM (H9 cells; Homo sapiens, H9, 10 μM): ~75%
inhibition at 100 µM (H9 cells; Homo sapiens, H9, 100 μM): ~85%
growth arrest of 855-2 cells at increasing serum concentration (855-2 cells [2]; 10 μM, increasing FCS): Growth arrest occurs irrespective of the concentration of FCS
relative potency, 855-2 (855-2 cells [2]; 10% fetal bovine serum): potent inhibitory effects regardless of the source of growth factor activity
colony formation, 855-2, in words (855-2 cells [3]): inhibit the ability of human leukemic cells (855-2 and HL-60) to form colonies
colony formation, HL-60, in words (HL-60 cells): inhibit the ability of human leukemic cells (855-2 and HL-60) to form colonies
life span of L1210-bearing BDF mice (L1210 murine leukemia; 6 consecutive days, untreated 10 days, 35 days = end of observation): 35 days
in vivo chemotherapeutic response, in words (L1210 murine leukemia; 6 days): highly significant in vivo chemotherapeutic response
toxic effects in mice (L1210 murine leukemia; 6 days): no toxic effects
activity against tumor cells, in words [4]: highly effective (against tumor cells)
time of complete ejection of zinc from Zn(HIV1-F1) ([5]; 1 mM Zn(HIV1-F1), D2O, pH* 6.2, 30° C.): 90 min
NOBA remaining unreacted ([5]; 90 min): 50%
zinc ejection and loss of nucleic acid binding, in words [6]: ejection of zinc with concomitant dissociation of the zinc finger nucleic acid complex; also recorded: NOBA-induced zinc ejection leads to loss of high-affinity nucleic acid binding function
Zinc Loss ([7]; 3,000 μM, 2 h, 37° C.): 52%
Zinc, NOBA-Treated Sample ([7]; 3,000 μM, 2 h, 37° C., control 0.21): 0.11 µg/mL
Zinc Loss ([7]; 6,000 μM, 4 h, 37° C.): 83%
Zinc, NOBA-Treated Sample ([7]; 6,000 μM, 4 h, 37° C., control 0.24): 0.04 µg/mL
losses of the viral zinc ([7]; 3000 or 6000 μM, 37° C.): 50-83%
infectivity of HIV-1 virions, in words ([7]; concentrated suspensions (60×)): complete loss of infectivity
loss of viral proteins in the pellet, in words ([7]; p24 and gp120 competition RIA, SDS-PAGE): No significant loss of viral proteins
anti-tumor and anti-HIV activity, in words (cells / HIV): highly active as anti-tumor and anti-HIV molecules
effectiveness after short exposure of cells (cells / HIV; exposure as short as 30 minutes): effective even after exposure of cells for a period as short as 30 minutes
CFU stem cell toxicity, in words [8]: non-toxic
effect on normal stem cell colony formation (FIG. 5), in words ([9]; anti-leukemic doses, soft agar, rhesus bone marrow or human peripheral blood stem cells): minimal effect on normal cells
effect on viability of normal cells, in words ([9]; tumor cell inhibitory concentrations): not to affect adversely the viability of normal cells
